Reference: patent US7122173B2, “Agent for the treatment of bladder irritative symptoms accompanied by benign prostatic hyperplasia” (Kyowa Hakko Kogyo Co., Ltd., priority 2001, dated 2006)

Experiments:
DRG cells = test: Current clamp, changes in membrane potential in DRG cells; type: cell-based, rat; conditions: control (0 mol/L) −47.95 ± 0.22
Protocol: Experiments were performed on adult female Sprague Dawley rats. A […] population of DRG neurons that innervate the urinary bladder were labeled by retrograde axonal transport of the fluorescent dye, Fast Blue (4% w/v) (Polyloy, Gross Umstadt, Germany) injected into the wall of the bladder in halothane-anesthetized animals 7 days before the dissociation. The dye was injected with a 28 gauge needle at three to six sites on the dorsal surface of the organ (5–6 μL per site, total volume of 20–30 μL). Each injection site was washed with saline to minimize contamination of adjacent organs with the dye.
Freshly dissociated neurons from DRG were prepared from halothane-anesthetized animals. L6 and S1 DRG were dissected from animals and then dissociated in a shaking bath for 25 minutes at 35° C. with 5 mL DMEM (Sigma) containing 0.3 mg/mL trypsin (Type 3, Sigma), 1 mg/mL collagenase (Type 1, Sigma), and 0.1 mg/ML deoxyribonuclease (Type 4, Sigma). Trypsin inhibitor (Type 2a, Sigma) was then added thereto to neutralize the activity of trypsin. Individual DRG cell bodies were isolated by trituration and then plated on a poly-L-lysine-coated 35 mm Petri dishes.
Dye-labeled primary afferent neurons that innervate the urinary bladder were identified using an inverted phase-contrast microscope (Nikon, Tokyo, Japan) with fluorescent attachments (UV-1A filter; excitation wavelength, 365 nm). Gigaohm-seal whole-cell recordings were performed within 6–8 hours after cell dissociation at room temperature (20–22° C.) on each labeled neuron in a culture dish that usually contained three to seven labeled cells among a few hundred unlabeled neurons. The internal solution contained (in mmol/L): KCl 140, CaCl2 1, MgCl2 2, EGTA 11, HEPES 10, Mg-ATP 2, and Tris-GTP 0.4 adjusted to pH 7.4 with KOH. Patch electrodes had resistances of 1–4 M Ω when filled with the internal solution. Neurons were superfused at a flow rate of 1.5 mL/minutes with an external solution containing (in mmol/L): NaCl 150, KCl 5, CaCl2 2.5, MgCl2 1, HEPES 10, and D-glucose 10, adjusted to pH 7.4 with NaOH. All recordings were made with an Axopatch-1D patch-clamp amplifier (Axon Instruments, Foster City, Calif.), and data were acquired and analyzed by PCLAMP software (Axon Instruments).
In current-clamp recordings, membrane potential of DRG cell were measured before and after compound applications. The membrane potentials were normalized to control (before addition of the compound).

[1] = system: rats with partial urethra obstruction; test: Increased urinary frequency accompanied by partial bladder outlet obstruction (metabolism cage urination test); type: in vivo, rat
Protocol: The test was carried out in accordance with the method of Saito et al. (J. Urol., 150: 1045–1051 (1993)). Male SD rats of 8 to 9 weeks of age (supplied by Japan SLC) were used in the test. Five to seven animals of these rats were put in each metal cage and reared by allowing them to freely take commercially available chow and water, in a rearing room at a room temperature of from 19 to 25° C. and a humidity of from 30 to 70% under illumination for 12 hours (from 7 a.m. to 7 p.m.) per day. Partial urethra obstruction was induced in rats as a model of outlet obstruction mimicking BPH. Each rat was anesthetized by intraperitoneal administration of 50 mg/kg of pentobarbital sodium (Dainippon Pharmaceutical) and placed in dorsal position. The abdomen was cut in a length of about 1 cm by midline incision to expose the bladder, prostate and the urethra. The bladder neck and bladder base were peeled from the prostate, and two surgical sutures (No. 3, Natsume Seisakusho) were passed behind the urethra base. A polyethylene tube (PE-200; Becton Dickinson) was placed along the urethra, and the urethra was mildly double-ligated together with the tube. The ligation was carried out in such a manner that the urethra was not pressed by the polyethylene tube and the sutures were not loosened. The polyethylene tube was pulled out and the urethra was partially obstructed. The incised part of the abdomen was sutured with the surgical suture. Five to seven days after the partial urethra constriction operation, the rats subjected to partial urethra obstruction and those subjected to sham-operation were put in metabolism cages (KN-649, Natsume Seisakusho). For acclimatization, rats were reared for 1 day with free drinking and feeding, and the urination test was started on the next day. Using an electronic force balance (HF-200; A and D), the amount of urination by rats was continuously measured as weight, and -recorded on a thermal array recorder (RTA-1200; Nihon Kohden) via a direct current amplifier (AD-641G; Nihon Kohden). The light period (9 to 18 o'clock) under illumination and the dark period (19 to 4 o'clock) under lights off were used as the data collecting periods, and the number of micturition and the urinary volume during these periods were measured to calculate urinary frequency (frequency of micturition per 9 hours), voided volume per micturition and total urine volume as the measuring parameters. In this case, the voided volume per micturition was calculated by dividing the total urine volume per 9 hours by the urinary frequency per 9 hours. Compound 1 or a solvent (0.5 w/v % aqueous methyl cellulose 400 cP (average viscosity: 400 centipoises) solution) was administered twice on the next day between 8 to 9 o'clock and 18 to 19 o'clock, and the number of micturition and urine volume during 9 to 18 o'clock and 19 to 4 o'clock were measured to obtain measured values similarly to the case of the previous day. In the sham-operation group, the urinary frequency, voided volume per micturition and the total urine volume on the first day of the urination test were compared with those in the urethra obstruction group. The urinary frequency, voided volume per micturition and the total urine volume in each group were calculated as average ±standard error.

[2] = Dark period (active period), after administration
[3] = Dark period (active period), before administration (baseline of the Compound 1 group)
[4] = Light period (inactive period), after administration
[5] = Light period (inactive period), before administration (baseline of the Compound 1 group)
[6] = rats with partial urethra obstruction

C[C@](O)(C(=O)Nc1cccc2c1C(=O)c1sccc1CS2(=O)=O)C(F)(F)F [Compound 1, (S)-(+)-N-(5,5-dioxido-10-oxo-4,10-dihydrothieno[3,2-c][1]benzothiepin-9-yl)-3,3,3-trifluoro-2-hydroxy-2-methylpropanamide]
Membrane potential (DRG cells; Compound 1 1.0 × 10^−6 mol/L): −53.67 ± 0.74 mV | Membrane potential (DRG cells; Compound 1 1.0 × 10^−7 mol/L): −57.17 ± 0.53 mV | Membrane potential (DRG cells; Compound 1 1.0 × 10^−8 mol/L): −49.80 ± 0.65 mV | Membrane potential (DRG cells; Compound 1 1.0 × 10^−9 mol/L): −48.10 ± 0.48 mV | Membrane potential (DRG cells; Compound 1 5.0 × 10^−4 mol/L): −42.67 ± 1.46 mV | Membrane potential (DRG cells; Compound 1 5.0 × 10^−5 mol/L): −48.50 ± 1.28 mV | Membrane potential (DRG cells; Compound 1 5.0 × 10^−6 mol/L): −50.50 ± 0.88 mV | Total urine volume [1, 2]: 4.83 ± 0.83 mL/9 h | Urinary frequency [1, 2]: 6.7 ± 1.2 micturitions/9 h | Voided volume per micturition [1, 2]: 0.771 ± 0.160 mL | Total urine volume [1, 3]: 3.57 ± 0.57 mL/9 h | Urinary frequency [1, 3]: 10.0 ± 1.3 micturitions/9 h | Voided volume per micturition [1, 3]: 0.362 ± 0.038 mL | Total urine volume [1, 4]: 4.76 ± 0.78 mL/9 h | Urinary frequency [1, 4]: 5.3 ± 0.4 micturitions/9 h | Voided volume per micturition [1, 4]: 0.899 ± 0.127 mL | Total urine volume [1, 5]: 4.80 ± 0.31 mL/9 h | Urinary frequency [1, 5]: 8.7 ± 0.8 micturitions/9 h | Voided volume per micturition [1, 5]: 0.577 ± 0.064 mL | Effect on urinary frequency (in words) [1, 6]: significantly reduced urinary frequency | Effect on voided volume per micturition (in words) [1, 6]: tended to increase voided volume per micturition
